The source of these data is patent US20250059139A1, “COMPOUNDS FOR TREATMENT OF CANCER” (THE JOHNS HOPKINS UNIVERSITY, priority 2021, published 2025).

One experiment has as its system HUVEC. Kind of experiment: mRNA expression of HUVEC in 3D-fibrin gels with HDF-conditioned media. It is filed as cell-based, human. Particulars: Fibroblast Conditioned Media: Yes, TasQ (10 μM): Yes. On the procedure: Three Dimensional (3D) Endothelial Sprouting Assay. The assay was performed using a minimum of 3 replicate wells of a 48 well tissue culture plate per drug dose per experiment, repeated 3 independent times in which human umbilical vein endothelial cells (HUVECs) obtained from Lonza Walkersville Inc (Walkersville, MD) attached to gelatin-coated dextran microcarrier bead are embedded in a fibrin matrix as described previously (Brennen et al. Oncotarget 7, 71298-71308 (2016)).
Besides its therapeutic effects on cancer cells, TasQ's anti-cancer efficacy also involves its dose-dependent anti-angiogenic activity (see, e.g., Isaacs 2006, Olsson 2010, Dalrymple 2012), Isaacs 2013, Isaacs 2014, Brennen 2016). To clarify the MoA for this anti-angiogenic activity, a 3-dimensional (3D) endothelial cell sprouting assay was used. In this assay, human umbilical vein endothelial cells (HUVECs) in basal media supplemented with VEGF, EGF, FGF, IGF1 and 2% FBS in standard 2D cultures are attached to collagen-coated beads embedded in a 3D-fibrin gel in the same growth factor-supplemented media. […] This lack of sprouting is associated with an upregulation in Mef-2c mRNA (Table 2) and protein (FIG. 38), and its target genes (Table 2) like Alpha 2 Macroglobulin (A2M). […] When the 3D-fibrin gels are further supplemented with conditioned media (CM) from human dermal fibroblasts (HDF) to provide additional angiogenic factors typically present within the TME A2M (Nakatsu et al. Microvasc Res 66, 102-112 (2003)), expression of the MEF-2c target genes, including A2M, is blocked (Table 2); enabling endothelial cell proliferation and invasion into the gels (i.e., “sprouting”); eventually forming canalized and anastomosing neovascular tubes within 7 days (FIG. 37). Importantly, 3D-sprouting occurs (FIG. 37), even when HIF-1α expression is KD in the HUVEC cells (FIG. 39).

Experiment [1] relates to LNCaP and LNCaP/AHR-KD xenografts. Kind of experiment: In vivo growth of LNCaP vs. LNCaP/AHR-KD xenografts in intact male hosts. The arrangement: species or system human. To be noted: daily oral 10 mg/kg/d from day 53 post-inoculation. The text has this:
(§1) Prostate Cancer Models. The source, history, and characteristics of the human prostate cancer cell lines and PDXs used, as well as cell culture conditions for their in vitro maintenance and the in vivo protocol for xenograft growth in triple immune-deficient NSG (i.e. NOD.Cg-PrkdcScidIl2rgtmlWji/Szj), adult (>8 week old) male mice obtained from the Sidney Kimmel Comprehensive Cancer Center (SKCCC) Animal Core Facility are described previously (Isaacs 2013; Brennen et al. JCI Insight. 2021, 6(8):e146827; Zhu et al. Oncogene 2020, 39(45): 6935-6949). […] In vitro growth curves were determined as described (Isaacs 2013). In vivo growth response to oral daily TasQ (10 mg/kg/d) of TRAMP-C2 mouse prostate cancers was evaluated in C57BL/6J syngeneic wild type vs. NOX-2 vs. iNOS null male mice obtained from Jackson Laboratory (Bar Harbor, ME). Growth response to oral daily TasQ (10 mg/kg/d) of TRAMP-C2 and B6CaP mouse prostate cancers was also evaluated in S100A9 null C57BL′6J male mice obtained from Dmitry Gabrilovich (Wistar Institute). […] In vitro growth curves were determined as described (Isaacs 2013). Growth response to daily oral TasQ vs. ESATA-20 (both at 10 mg/kg/d) of Myc-CaP-CR mouse prostate cancer was evaluated in syngeneic FVB/NJ castrate male mice from Jackson Laboratory. […]

The test system of experiment [2] is CWR-22Rv1 parental wild type cells. Kind of experiment: In vivo growth of CWR-22Rv1 parental wild type xenografts. Particulars: daily oral 10 mg/kg/d. The arrangement: species or system human.
Excerpt: as §1

Experiment [3] concerns prostate cancer xenografts. To be noted: daily oral 10 mg/kg/d; cited from earlier work.
Another experiment has as its target S100A9 (Homo sapiens, UniProt P06702). Particulars: Kallberg et al. 2012; cited from earlier work.

Sequence of S100A9 (P06702 whole entry, species assumed): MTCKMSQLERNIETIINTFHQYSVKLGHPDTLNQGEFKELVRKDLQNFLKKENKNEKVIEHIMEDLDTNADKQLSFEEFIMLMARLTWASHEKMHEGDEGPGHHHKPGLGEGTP

On to `COc1cccc2c1c(O)c(C(=O)N(C)c1ccc(C(F)(F)F)cc1)c(=O)n2C` [TasQ, Tasquinimod], for which, in the experiment with HUVEC, the A2M Gene Expression (FPKM), Mef-2c Target Gene stood at 257 FPKM; the Adamt59 Gene Expression (FPKM), Mef-2c Target Gene turned out to be 89.2 FPKM; the Apinr Gene Expression (FPKM), Mef-2c Target Gene came out at 81.1 FPKM; the Ets1 Gene Expression (FPKM) came out at 73 FPKM. Further, in the experiment with HUVEC, the Ets2 Gene Expression (FPKM) was 45.2 FPKM; the KDR (VEGFR2) Gene Expression (FPKM), Ets Target Gene came out at 99.3 FPKM; the “LI1 (VEGFR1) Gene Expression (FPKM), Ets Target Gene” value is on record as 106,830 FPKM; the “Mef-2c Target Gene Expression, Gene Expression (FPKM)” value is 21,217 FPKM. Besides, in the experiment on HUVEC, the “NR4A1 Gene Expression (FPKM), Mef-2c Target Gene” value is 1,598 FPKM; the “NR4A2 Gene Expression (FPKM), Mef-2c Target Gene” value is 297 FPKM; the “SerpinB1 Gene Expression (FPKM), Mef-2c Target Gene” value is recorded as 4,926 FPKM; the “Spry Gene Expression (FPKM), Mef-2c Target Gene” value is recorded as 11,728 FPKM. Moreover, the “Stc1 Gene Expression (FPKM), Mef-2c Target Gene” value in the experiment with HUVEC is 18,619 FPKM. The “growth response of LNCaP and LNCaP/AHR-KD xenografts” value in experiment [1] is “equally inhibited”. The “growth inhibition of wild type xenografts” value in experiment [2] is reported as more than 80%. In addition, in experiment [3], the enhancement of hypoxia is more than 2 fold and the “pO2 in the TME” value is recorded as 1.4+/−1.0 mmHg. Besides, the “affinity to S100A9” value at S100A9 is given as “nanomolar (nM) affinity”.
